# Laboratory results as given in ChEMBL document CHEMBL1201862, “PubChem BioAssay data set” (2004).
#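 A five-concentration, 48-hour dose response in 96-well plates underlies each endpoint, interpolated linearly between surrounding concentrations. GI50 is the concentration that inhibits growth by half.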 Active and inactive are the calls of the source. No stated cut-off is given here; in the data, active = GI50 up to about 1.1 µM and inactive = higher.
# Experiments:
# Test in all cases: NCI tumour cell line growth inhibition, 48 h
# LXFL 529 = test system: LXFL 529
# CAKI-1 = test system: CAKI-1
# SNB-78 = test system: SNB-78
# SK-MEL-2 = test system: SK-MEL-2
# HCT-116 = test system: HCT-116
# M19-MEL = test system: M19-MEL
# MOLT-4 = test system: MOLT-4
# KM12 = test system: KM12
# CCRF-CEM = test system: CCRF-CEM
# DLD-1 = test system: DLD-1
# TK-10 = test system: TK-10
# HOP-92 = test system: HOP-92
# UO-31 = test system: UO-31
# OVCAR-8 = test system: OVCAR-8
# K562 = test system: K562
# SK-OV-3 = test system: SK-OV-3
# SW-620 = test system: SW-620
# COLO 205 = test system: COLO 205
# SF-295 = test system: SF-295
# RPMI-8226 = test system: RPMI-8226
# 786-0 = test system: 786-0
# OVCAR-4 = test system: OVCAR-4
# OVCAR-3 = test system: OVCAR-3
# HOP-62 = test system: HOP-62
# EKVX = test system: EKVX
# UACC-62 = test system: UACC-62
# Malme-3M = test system: Malme-3M
# SF-539 = test system: SF-539
# HOP-18 = test system: HOP-18
# HCC 2998 = test system: HCC 2998
# IGROV-1 = test system: IGROV-1
# DMS-114 = test system: DMS-114
# SK-MEL-5 = test system: SK-MEL-5
# A549 = test system: A549
# HT-29 = test system: HT-29
# M14 = test system: M14
# UACC-257 = test system: UACC-257
# SNB-19 = test system: SNB-19
# NCI-H226 = test system: NCI-H226
# HL-60 = test system: HL-60
# HCT-15 = test system: HCT-15
# SF-268 = test system: SF-268
# SNB-75 = test system: SNB-75
# KM-20L2 = test system: KM-20L2
# SK-MEL-28 = test system: SK-MEL-28
# OVCAR-5 = test system: OVCAR-5
# MCF7 = test system: MCF7
# NCI/ADR-RES = test system: NCI/ADR-RES
# DMS-273 = test system: DMS-273
# A498 = test system: A498
# NCI-H522 = test system: NCI-H522
# NCI-H460 = test system: NCI-H460
# U-251 = test system: U-251
# LOX IMVI = test system: LOX IMVI
# RXF 393 = test system: RXF 393
# NCI-H23 = test system: NCI-H23
# SN12C = test system: SN12C
structure (smiles),measurement,setting,value
CSc1nc(NC2OC(COC(C)=O)C(OC(C)=O)C(OC(C)=O)C2OC(C)=O)c(/N=C(\C)C(C)=O)c(=O)n1C (configuration not stated),GI50,LXFL 529,> 100 µM (inactive)
same,GI50,CAKI-1,> 100 µM (inactive)
same,GI50,SNB-78,> 100 µM (inactive)
same,GI50,SK-MEL-2,> 100 µM (inactive)
same,GI50,HCT-116,> 100 µM (inactive)
same,GI50,M19-MEL,> 100 µM (inactive)
same,GI50,MOLT-4,> 100 µM (inactive)
same,GI50,KM12,> 100 µM (inactive)
same,GI50,CCRF-CEM,> 100 µM (inactive)
same,GI50,DLD-1,> 100 µM (inactive)
same,GI50,TK-10,> 100 µM (inactive)
same,GI50,HOP-92,> 100 µM (inactive)
same,GI50,UO-31,> 100 µM (inactive)
same,GI50,OVCAR-8,> 100 µM (inactive)
same,GI50,K562,> 100 µM (inactive)
same,GI50,SK-OV-3,> 100 µM (inactive)
same,GI50,SW-620,> 100 µM (inactive)
same,GI50,COLO 205,> 100 µM (inactive)
same,GI50,SF-295,> 100 µM (inactive)
same,GI50,RPMI-8226,> 100 µM (inactive)
same,GI50,786-0,> 100 µM (inactive)
same,GI50,OVCAR-4,> 100 µM (inactive)
same,GI50,OVCAR-3,> 100 µM (inactive)
same,GI50,HOP-62,> 100 µM (inactive)
same,GI50,EKVX,> 100 µM (inactive)
same,GI50,UACC-62,> 100 µM (inactive)
same,GI50,Malme-3M,> 100 µM (inactive)
same,GI50,SF-539,> 100 µM (inactive)
same,GI50,HOP-18,> 100 µM (inactive)
same,GI50,HCC 2998,> 100 µM (inactive)
same,GI50,IGROV-1,> 100 µM (inactive)
same,GI50,DMS-114,> 100 µM (inactive)
same,GI50,SK-MEL-5,> 100 µM (inactive)
same,GI50,A549,> 100 µM (inactive)
same,GI50,HT-29,> 100 µM (inactive)
same,GI50,M14,> 100 µM (inactive)
same,GI50,UACC-257,> 100 µM (inactive)
same,GI50,SNB-19,> 100 µM (inactive)
same,GI50,NCI-H226,> 100 µM (inactive)
same,GI50,HL-60,> 100 µM (inactive)
N/C(=N\O)N/N=C/c1cc2c(cc1Cl)OCO2,GI50,HCT-15,13.7 µM
same,GI50,SF-268,25.4 µM (inactive)
same,GI50,CAKI-1,37.5 µM (inactive)
same,GI50,SNB-75,30.1 µM (inactive)
same,GI50,SNB-78,> 68.2 µM (inactive)
same,GI50,SK-MEL-2,32.1 µM (inactive)
same,GI50,HCT-116,51.5 µM (inactive)
same,GI50,KM-20L2,35.8 µM (inactive)
same,GI50,SK-MEL-28,64.4 µM (inactive)
same,GI50,M19-MEL,> 56.9 µM (inactive)
same,GI50,OVCAR-5,32.5 µM (inactive)
same,GI50,MCF7,22.3 µM (inactive)
same,GI50,MOLT-4,39 µM (inactive)
same,GI50,KM12,29.5 µM (inactive)
same,GI50,NCI/ADR-RES,18 µM (inactive)
same,GI50,CCRF-CEM,27 µM (inactive)
same,GI50,DLD-1,42.8 µM (inactive)
same,GI50,DMS-273,18.6 µM (inactive)
same,GI50,A498,65.6 µM (inactive)
same,GI50,HOP-92,28.3 µM (inactive)
same,GI50,UO-31,21.4 µM (inactive)
same,GI50,OVCAR-8,40.6 µM (inactive)
same,GI50,K562,26.1 µM (inactive)
same,GI50,SK-OV-3,26.4 µM (inactive)
same,GI50,NCI-H522,16 µM (inactive)
same,GI50,SW-620,41.8 µM (inactive)
same,GI50,COLO 205,33.3 µM (inactive)
same,GI50,NCI-H460,34.1 µM (inactive)
same,GI50,SF-295,22.9 µM (inactive)
same,GI50,RPMI-8226,24 µM (inactive)
same,GI50,U-251,34.5 µM (inactive)
same,GI50,OVCAR-4,52 µM (inactive)
same,GI50,HOP-62,36.3 µM (inactive)
same,GI50,EKVX,60.4 µM (inactive)
same,GI50,UACC-62,> 50.4 µM (inactive)
same,GI50,Malme-3M,> 100 µM (inactive)
same,GI50,SF-539,31.8 µM (inactive)
same,GI50,HOP-18,56.2 µM (inactive)
same,GI50,HCC 2998,26 µM (inactive)
same,GI50,IGROV-1,43 µM (inactive)
same,GI50,DMS-114,> 100 µM (inactive)
same,GI50,LOX IMVI,31.5 µM (inactive)
same,GI50,SK-MEL-5,24.2 µM (inactive)
same,GI50,A549,36.8 µM (inactive)
same,GI50,RXF 393,38.4 µM (inactive)
same,GI50,HT-29,46.1 µM (inactive)
same,GI50,UACC-257,42.3 µM (inactive)
same,GI50,SNB-19,> 25.8 µM (inactive)
same,GI50,NCI-H226,29.1 µM (inactive)
same,GI50,NCI-H23,58.1 µM (inactive)
same,GI50,SN12C,59 µM (inactive)
same,GI50,HL-60,13.1 µM (inactive)
